From article PMC4085797, “Synthetic Inositol Phosphate Analogs Reveal that PPIP5K2 Has a Surface-Mounted Substrate Capture Site that Is a Target for Drug Discovery” (Chemistry & Biology, 2014)
Numbering of substitutions follows the chain as printed. “Also recorded” adds a separate entry of the source.

Assays:
[1] = biological target: T1, PPIP5K2^KD (kinase domain of human PPIP5K2) (Homo sapiens, UniProt O43314); parameters: method as in Weaver et al., 2013; settings: 25 μM; ref Weaver et al., 2013; cited from earlier work
T1 construct: The kinase domain of human PPIP5K2 (PPIP5K2^KD; residues 1–366); made in house
T1 sequence (O43314 1-366): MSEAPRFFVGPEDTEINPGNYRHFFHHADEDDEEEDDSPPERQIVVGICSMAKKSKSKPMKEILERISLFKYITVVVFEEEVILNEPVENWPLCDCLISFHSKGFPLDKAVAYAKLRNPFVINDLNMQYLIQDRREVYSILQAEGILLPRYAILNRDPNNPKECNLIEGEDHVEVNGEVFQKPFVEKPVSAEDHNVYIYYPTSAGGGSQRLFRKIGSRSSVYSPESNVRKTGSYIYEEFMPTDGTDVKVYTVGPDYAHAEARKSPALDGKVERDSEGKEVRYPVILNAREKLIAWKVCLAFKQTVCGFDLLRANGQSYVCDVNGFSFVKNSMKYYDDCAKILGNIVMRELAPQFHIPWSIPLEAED

human PPIP5K2^KD = biological target: T2, human PPIP5K2^KD (Homo sapiens, UniProt O43314); parameters: method as in Weaver et al., 2013; settings: ref Weaver et al., 2013; cited from earlier work
T2 construct: The kinase domain of human PPIP5K2 (PPIP5K2^KD; residues 1–366); made in house
T2 sequence (O43314 1-366): T1 sequence (O43314 1-366)

human IP6K2 = biological target: T3, human IP6K2 (Homo sapiens, UniProt Q9UHH9); parameters: method as in Saiardi et al., 2000; settings: ref Saiardi et al., 2000; cited from earlier work
T3 construct: Full-length human IP6K2, the kinase domain of human PPIP5K2; made in house
T3 sequence (Q9UHH9 1-426): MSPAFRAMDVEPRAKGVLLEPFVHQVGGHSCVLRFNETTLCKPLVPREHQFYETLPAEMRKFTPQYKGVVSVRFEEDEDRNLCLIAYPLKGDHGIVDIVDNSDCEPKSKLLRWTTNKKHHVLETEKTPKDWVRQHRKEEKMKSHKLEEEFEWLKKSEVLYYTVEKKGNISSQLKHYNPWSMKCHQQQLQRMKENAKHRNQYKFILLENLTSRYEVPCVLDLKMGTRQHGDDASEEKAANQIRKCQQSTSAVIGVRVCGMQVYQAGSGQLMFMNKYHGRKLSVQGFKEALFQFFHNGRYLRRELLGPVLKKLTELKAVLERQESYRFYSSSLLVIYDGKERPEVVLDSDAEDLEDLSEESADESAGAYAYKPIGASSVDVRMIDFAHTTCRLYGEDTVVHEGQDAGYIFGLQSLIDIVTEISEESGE

PPIP5K2^KD R213A mutant = biological target: T4, PPIP5K2^KD R213A mutant (Homo sapiens, UniProt O43314, R213A); parameters: method as in Weaver et al., 2013; settings: R213A mutation; ref Weaver et al., 2013; cited from earlier work
T4 construct: The kinase domain of human PPIP5K2 (PPIP5K2^KD; residues 1–366); made in house
T4 sequence (O43314 1-366 R213A): T1 sequence (O43314 1-366) with R213A

[2] = biological target: T1, PPIP5K2^KD (kinase domain of human PPIP5K2); assay: ATPase activity of PPIP5K2KD (Pi release); type: biochemical; settings: for stimulation of ATPase activity (in words): wild-type enzyme; for EC50: dose-response, key of Figure 4A, n = 3, read-out: EC50, stimulation of ATPase activities
Procedure: (§1) The initial InsP6 concentration was either 500 nM, 70 nM, or 40 nM. Various concentrations of 2,5-di-O-Bn-InsP4 were present as indicated. Radioactivity was assessed using an in-line Flo1 detector. The ADP-driven dephosphorylation of 100 nM 1,5-[PP]2-InsP4 by PPIP5K2^KD was usually determined by a luminescence-based assay of ATP accumulation ([Riley et al., 2012; Weaver et al., 2013]). The IC50 values were determined using GraphPad Prism v6.02 (n ≥ 3). In some experiments, 1,5-[PP]2-[^3H]InsP4 dephosphorylation by PPIP5K2^KD was assayed in 50 μl buffer containing 50 mM KCl, 20 mM HEPES pH 7.0, 7 mM MgSO4, 5 mM ADP, 1 mM EDTA. Reactions were then quenched, neutralized, and analyzed with HPLC using a Partisphere SAX column ([Weaver et al., 2013]); 1 ml fractions were collected for liquid scintillation spectrometry. The ATPase activity of PPIP5K2^KD (10–270 μg/ml) was assayed from Pi release following incubation at 37°C for 120–180 min in 20 μl reaction mixtures containing 20 mM Tris/HCl, pH 7.5, 10 mM ATP, 100 mM KCl, 0.1 mM EDTA, and 13 mM MgCl2.

[3] = biological target: T1, PPIP5K2^KD (kinase domain of human PPIP5K2); assay: Reverse-kinase assay: ADP-driven dephosphorylation of 1,5-[PP]2-InsP4, luminescence-based assay of ATP accumulation; type: biochemical; settings: for IC50: 100 nM [PP]2-InsP4, key of Figure 4B, n = 3, read-out: IC50, inhibition of ADP-driven dephosphorylation of [PP]2-InsP4; for inhibition of [PP]2-InsP4 metabolism (in words): 100 nM 1,5-[PP]2-InsP4, Figure 4B
Procedure: The six compounds that were selected for the dose-response curves in the assays of ATP hydrolysis (Figure 4A) were now investigated for their effects upon diphosphoinositol polyphosphate metabolism by PPIP5K2^KD (Figure 4B). We used a high-throughput reverse-kinase assay that records ATP generated from ADP during the dephosphorylation of 100 nM 1,5-[PP]2-InsP4 ([Riley et al., 2012; Weaver et al., 2013]). Each of the tested analogs inhibited [PP]2-InsP4 metabolism by PPIP5K2^KD (Figure 4B). […] However, the inhibition by 2,5-di-O-Bn-InsP4 (10) was more unexpected because due to its bulk, and its less negative charge compared to physiological substrates, we predict it to be a poor ligand for the active site of the highly specific PPIP5K2^KD ([Wang et al., 2012]). Nevertheless, its ability to inhibit reverse-kinase activity was directly confirmed by high-performance liquid chromatography (HPLC) analysis of [PP]2-[^3H]InsP4 dephosphorylation (Figures S1A–S1C available online).
as §1

PPIP5K2^KD E192G mutant = biological target: T5, PPIP5K2^KD E192G mutant (Homo sapiens, UniProt O43314, E192G); assay: ATPase activity of E192G mutant; type: biochemical
T5 construct: The kinase domain of human PPIP5K2 (PPIP5K2^KD; residues 1–366); made in house
T5 sequence (O43314 1-366 E192G): T1 sequence (O43314 1-366) with E192G
Procedure: as §1
Protein Expression, Purification, Crystallization and Structure Determination […]
(§2) The structure was further manually rebuilt with COOT and refined with PHENIX and
(§3) REFMAC from the CCP4 package. Ligand topology and parameter files were prepared using
(§4) the PRODRG server. The molecular graphics representations were prepared with the program
(§5) PyMol (Schrödinger, LLC). The 2D ligand-protein interaction diagrams were generated by
(§6) LigPlot+. Atomic coordinates and structure factors have been deposited with the Protein Data
(§7) Bank with accession codes: 4NZM, 4NZN, 4NZO.
(§8) Mutants were generated using a site-directed mutagenesis kit (Stratagene). Pairs of complementary
primers were designed as shown below, with mutagenic primers underlined (only 5’ primers are
All mutated constructs were sequenced. Mutant proteins were expressed and purified as for wild-

PPIP5K2^KD E192Q mutant = biological target: T6, PPIP5K2^KD E192Q mutant (Homo sapiens, UniProt O43314, E192Q); assay: ATPase activity of E192Q mutant; type: biochemical; settings: 25 μM, Figure 7E
T6 construct: The kinase domain of human PPIP5K2 (PPIP5K2^KD; residues 1–366); made in house
T6 sequence (O43314 1-366 E192Q): T1 sequence (O43314 1-366) with E192Q
Procedure: as §1
Protein Expression, Purification, Crystallization and Structure Determination
Full-length human IP6K2, the kinase domain of human PPIP5K2 (PPIP5K2KD; residues 1-
366), and the N-terminally truncated domain used for the crystallography studies (residues
41-366) were all sub-cloned, expressed and purified as before (Wang et al., 2012; Weaver et
al., 2013). […]
as §2, §3, §4, §5, §6, §7, §8
primers were designed as shown below, with mutagenic primers underlined (only 5’ primers are […]

Row | EC50 [2] [nM] | IC50 [3] [nM] | Compound | stimulation of ATPase activity (in words) ([2]; 25 μM, Figure 2) | further results
1 |  |  | O=P(O)(O)O[C@H]1[C@H](OP(=O)(O)O)[C@@H](OP(=O)(O)O)[C@H](OP(=O)(O)O)[C@@H](OP(=O)(O)O)[C@H]1OP(=O)(O)O [InsP6] |  | activation of substrate-stimulated ATPase activity [1]: 2- to 3 fold; affinity for InsP6 phosphorylation by PPIP5K2^KD (human PPIP5K2^KD): 390 nM; affinity of IP6K2 for InsP6 (human IP6K2): 430 nM; InsP6-stimulated ATPase activity (in words) (PPIP5K2^KD R213A mutant): abolished
2 |  |  | O=P(O)(O)O[C@@H]1[C@@H](OP(=O)(O)O)[C@H](OP(=O)(O)O)[C@H](O)[C@H](OP(=O)(O)O)[C@H]1OP(=O)(O)O [Ins(1,3,4,5,6)P5] |  | activation of substrate-stimulated ATPase activity [1]: 2- to 3 fold
3 | 8800 | 2400 | O=P(O)(O)O[C@@H]1[C@@H](OP(=O)(O)OP(=O)(O)O)[C@H](OP(=O)(O)O)[C@@H](OP(=O)(O)O)[C@@H](O)[C@H]1OP(=O)(O)O [compound 9, 5-PP-InsP4] | about half the rate shown by 2-O-Bn-5-PP-InsP4 (8) | 
4 |  |  | O=C(O[C@H]1[C@@H](OP(=O)(O)O)[C@H](OP(=O)(O)O)[C@@H](OP(=O)(O)O)[C@H](OP(=O)(O)O)[C@H]1OP(=O)(O)O)c1ccccc1 [compound 4, 2-O-benzoyl-InsP5] | only a minimal reduction in ATPase-stimulating activity | 
5 | 2200 | 440 | O=P(O)(O)O[C@@H]1[C@@H](OP(=O)(O)O)[C@H](OP(=O)(O)O)[C@H](OCc2ccccc2)[C@H](OP(=O)(O)O)[C@H]1OP(=O)(O)O [compound 7, 2-O-Bn-InsP5] | less effective than was 2-O-Bn-5-PA-InsP4; also recorded: roughly doubling the rate of ATP hydrolysis that is induced by InsP6 | less potent than 2-O-Bn-5-PA-InsP4 (2) at stimulating ATPase activity ([2]; from EC50 values, Figure 4A): 4 fold; inhibition of [PP]2-InsP4 metabolism (in words) [3]: equally efficient
6 | 1200 | 140 | O=C(CP(=O)(O)O)O[C@@H]1[C@@H](OP(=O)(O)O)[C@H](OP(=O)(O)O)[C@H](OP(=O)(O)O)[C@H](OP(=O)(O)O)[C@H]1OP(=O)(O)O [compound 1, 5-O-α-phosphonoacetyl-myo-inositol 1,2,3,4,6-pentakisphosphate] |  | stimulation of ATP hydrolysis ([2]; 25 μM analog): 5 fold; inhibition of [PP]2-InsP4 metabolism (in words) [3]: most potent inhibitor
7 |  |  | O=C(CP(=O)(O)O)O[C@@H]1[C@@H](OP(=O)(O)O)[C@H](OP(=O)(O)O)[C@H](O)[C@H](OP(=O)(O)O)[C@H]1OP(=O)(O)O [compound 3, 5-PA-InsP4] | dramatically reduced | 
8 |  |  | CCCC(=O)O[C@H]1[C@@H](OP(=O)(O)O)[C@H](OP(=O)(O)O)[C@@H](OP(=O)(O)O)[C@H](OP(=O)(O)O)[C@H]1OP(=O)(O)O [compound 5, 2-O-butanoyl-InsP5] | sharp reduction in activity | 
9 |  |  | NCCO[C@H]1[C@@H](OP(=O)(O)O)[C@H](OP(=O)(O)O)[C@@H](OP(=O)(O)O)[C@H](OP(=O)(O)O)[C@H]1OP(=O)(O)O [compound 6, 2-O-(2-aminoethyl)-InsP5] | did not stimulate ATPase activity | 
10 | 2600 | 500 | O=P(O)(O)O[C@@H]1[C@H](OCc2ccccc2)[C@H](OP(=O)(O)O)[C@@H](OP(=O)(O)O)[C@H](OP(=O)(O)OP(=O)(O)O)[C@H]1OP(=O)(O)O [compound 8, 2-O-Bn-5-PP-InsP4] |  | more effective at stimulating ATPase activity than 2-O-Bn-5-PA-IP4 (2) ([2]; 25 μM, Figure 2): 20%; rate of ligand-stimulated ATPase activity vs wild-type (in words) (PPIP5K2^KD E192G mutant): neither of these particular mutations altered the rate; rate of ligand-stimulated ATPase activity vs wild-type (in words) (PPIP5K2^KD E192Q mutant): neither of these particular mutations altered the rate
